Results taken from patent US9066961B2, “Medicament for LCT poisoning” (JOHANNES GUTENBERG-UN[…], priority 2006, dated 2015).

Columns and labels:
TcdB10463 [1] = biological target: T1, TcdB10463 (Clostridioides difficile, UniProt P18177); test: In vitro cleavage assay of TcdB10463 after pre-treatment with protease inhibitor EPNP; assay type: biochemical, Clostridium difficile
T1 construct: the TcdB10463, purified from culture supernate of C. difficile, used in the experiments; purchased tgcBIOMICS, Mainz, Germany; host or cells: Clostridium difficile VPI10463 culture supernatant
Procedure: TcdB10463 was purified as described in Example 1 (D) by means of affinity chromatography with the use of the monoclonal antibody 2CV and then pre-treated either (i) with the protease inhibitor EPNP (10 mM 1,2-epoxy-3-(p-nitrophenoxy)-propane) or (ii)—as control—with buffer (50 mM HEPES, 1M NaCl, 1 mM EDTA, pH 8.0) for 60 minutes at room temperature.
Then an in vitro cleavage assay analogous to Example 1 (A) was carried out. The test batches comprised respectively a volume of 10 μl, and contained respectively 50-100 ng unmarked TcdB10463, 100 μM IP6 and 10 mM tris-HCl pH 8.5. Following the incubation (1 h at room temperature), these test batches were subjected to a SDS-PAGE (10%) and the toxins and toxin fragments were then made visible by means of zinc stain.

TcdB10463 [2] = biological target: T1, TcdB10463; assay type: biochemical, Clostridium difficile
TcdB = TcdB (Clostridioides difficile, UniProt P18177); details: for Start of cell rounding after: CHO cells, TcdB pre-treated with polyclonal antiserum (1:100) 1 h at room temperature; for Neutralising effect of the polyclonal antiserum in the CHO test: antiserum of rabbits immunised with the preparation, dilution 1:100
Procedure: The CHO test was carried out as follows: In a 96 well microtiter plate, CHO cells (=Chinese hamster ovarial cells) were disseminated (5000 cells/well) and incubated for 16 hours under standard conditions (5% CO2, DMEM F12 supplemented with […] L-glutamins, 5% FCS). The toxins were then introduced to the cells after gradual dilution in growth medium. Dilution stages between 10° and 10^−8 were tested. The cells were incubated for 3 hours under standard conditions. Then the proportion of rounded cells was determined microscopically, by several representative sections of the well being photographed and the elongated and the rounded cells being counted. (See also Moos et al., Meth Enzymol. 2000, 325: 114-125. Reference is made here expressly to the content of this publication).
In order to check the neutralising effect of the polyclonal antiserums, firstly TcdB was pre-treated with polyclonal antiserum (dilution stage 1:100) and incubated for 1 h at room temperature. Then the neutralising effect of the antiserums was checked as described in Example 2 with the aid of the CHO test. The measurement for the neutalising effect of the serums was how long the cells were protected from the cytotoxic effect of the TcdB.

T1 sequence (P18177 whole entry): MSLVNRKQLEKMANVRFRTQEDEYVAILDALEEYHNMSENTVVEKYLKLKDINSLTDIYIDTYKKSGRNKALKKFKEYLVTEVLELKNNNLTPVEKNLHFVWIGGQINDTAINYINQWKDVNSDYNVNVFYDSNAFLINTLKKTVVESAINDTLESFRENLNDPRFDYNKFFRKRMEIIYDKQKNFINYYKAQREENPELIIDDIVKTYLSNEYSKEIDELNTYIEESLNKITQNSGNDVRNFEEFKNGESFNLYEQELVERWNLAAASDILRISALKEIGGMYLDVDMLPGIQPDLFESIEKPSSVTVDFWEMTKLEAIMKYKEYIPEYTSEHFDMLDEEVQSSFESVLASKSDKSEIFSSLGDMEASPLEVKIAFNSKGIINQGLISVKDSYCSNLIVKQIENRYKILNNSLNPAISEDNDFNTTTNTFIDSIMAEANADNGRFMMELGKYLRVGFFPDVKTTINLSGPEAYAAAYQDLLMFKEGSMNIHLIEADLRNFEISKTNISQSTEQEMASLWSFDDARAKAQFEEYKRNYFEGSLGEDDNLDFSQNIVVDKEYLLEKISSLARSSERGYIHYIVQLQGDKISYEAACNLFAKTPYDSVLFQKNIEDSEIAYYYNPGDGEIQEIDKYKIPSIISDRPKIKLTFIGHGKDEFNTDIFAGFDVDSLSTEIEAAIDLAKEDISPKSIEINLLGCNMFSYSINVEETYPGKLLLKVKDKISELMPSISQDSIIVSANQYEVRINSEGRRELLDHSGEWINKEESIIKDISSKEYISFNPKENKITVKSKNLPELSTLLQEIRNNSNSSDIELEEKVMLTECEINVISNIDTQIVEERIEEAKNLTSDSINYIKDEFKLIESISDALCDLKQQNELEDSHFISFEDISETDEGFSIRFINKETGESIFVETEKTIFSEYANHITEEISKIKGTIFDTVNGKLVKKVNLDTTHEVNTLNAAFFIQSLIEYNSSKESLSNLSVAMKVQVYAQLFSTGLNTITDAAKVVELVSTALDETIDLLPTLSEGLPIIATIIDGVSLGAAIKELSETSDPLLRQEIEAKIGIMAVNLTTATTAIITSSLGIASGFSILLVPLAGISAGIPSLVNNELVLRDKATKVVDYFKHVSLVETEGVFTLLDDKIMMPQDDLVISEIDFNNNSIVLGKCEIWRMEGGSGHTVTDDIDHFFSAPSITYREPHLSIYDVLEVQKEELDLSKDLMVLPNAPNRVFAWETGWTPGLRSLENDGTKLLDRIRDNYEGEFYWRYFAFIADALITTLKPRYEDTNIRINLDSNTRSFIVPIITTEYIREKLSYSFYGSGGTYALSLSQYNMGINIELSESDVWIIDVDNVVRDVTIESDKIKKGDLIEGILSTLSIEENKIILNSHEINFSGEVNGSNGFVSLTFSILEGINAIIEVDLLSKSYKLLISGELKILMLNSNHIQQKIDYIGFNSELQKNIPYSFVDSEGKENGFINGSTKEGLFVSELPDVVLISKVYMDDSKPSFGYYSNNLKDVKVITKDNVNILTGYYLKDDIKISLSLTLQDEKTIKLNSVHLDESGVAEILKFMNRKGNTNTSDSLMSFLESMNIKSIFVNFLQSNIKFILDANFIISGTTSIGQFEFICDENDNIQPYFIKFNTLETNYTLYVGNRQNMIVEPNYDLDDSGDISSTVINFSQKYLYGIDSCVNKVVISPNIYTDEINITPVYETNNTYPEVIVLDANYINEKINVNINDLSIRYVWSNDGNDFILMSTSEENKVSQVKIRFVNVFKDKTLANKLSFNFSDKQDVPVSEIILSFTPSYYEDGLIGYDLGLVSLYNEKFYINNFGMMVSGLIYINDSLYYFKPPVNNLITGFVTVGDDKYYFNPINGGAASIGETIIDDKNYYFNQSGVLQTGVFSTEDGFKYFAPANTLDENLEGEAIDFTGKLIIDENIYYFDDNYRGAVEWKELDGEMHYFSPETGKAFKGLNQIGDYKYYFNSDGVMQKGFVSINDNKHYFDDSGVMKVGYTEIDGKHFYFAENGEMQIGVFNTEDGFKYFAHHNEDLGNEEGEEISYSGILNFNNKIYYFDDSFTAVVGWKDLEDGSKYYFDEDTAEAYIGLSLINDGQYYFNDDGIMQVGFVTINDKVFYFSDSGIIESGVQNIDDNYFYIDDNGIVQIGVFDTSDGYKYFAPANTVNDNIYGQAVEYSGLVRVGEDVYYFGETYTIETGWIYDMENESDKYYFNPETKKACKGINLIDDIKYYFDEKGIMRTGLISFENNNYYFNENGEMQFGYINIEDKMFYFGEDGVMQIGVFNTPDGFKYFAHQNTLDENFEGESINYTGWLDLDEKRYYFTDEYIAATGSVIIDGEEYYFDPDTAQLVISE
Chain of TcdB (P18177 whole entry): as above

Molecule: O=[N+]([O-])c1ccc(OCC2CO2)cc1 (centres unmarked) [EPNP, 1,2-epoxy-3-(p-nitrophenoxy)-propane]
- 63 kD band in SDS-PAGE (TcdB10463 [1]; TcdB10463 pre-treated with EPNP, after incubation with IP6 (FIG. 2, Line 2)): only weakly formed
- Proteolytic activity (protease activity) of TcdB10463 (TcdB10463 [1]; pre-treatment with 10 mM EPNP 60 minutes, then 100 μM IP6 1 h at room temperature): almost completely inhibited

Molecule: O=P(O)(O)O[C@H]1[C@H](OP(=O)(O)O)[C@@H](OP(=O)(O)O)[C@H](OP(=O)(O)O)[C@@H](OP(=O)(O)O)[C@H]1OP(=O)(O)O [IP 1, 2, 3, 4, 5, 6, inositol hexaphosphate]
- Cleavage activity (initiator activity) amongst the tested inositol phosphates (TcdB10463 [2]): strongest cleavage activity
- Cleavage of the holotoxin into 63 kDa and 207 kDa fragments (TcdB10463 [2]): complete cleavage

B1: Preparation D: TcdB fragment AS1508-1601 (part of the inosine-binding motif) (protein, UniProt P18177 1508-1601, looked up, fragment)
chain: YYSNNLKDVKVITKDNVNILTGYYLKDDIKISLSLTLQDEKTIKLNSVHLDESGVAEILKFMNRKGNTNTSDSLMSFLESMNIKSIFVNFLQSN
- Start of cell rounding after (TcdB): 9 to 12 h
- Neutralising effect of the polyclonal antiserum in the CHO test (TcdB): smaller neutralising effect

B2: Preparation C: TcdB fragment AS1601-1716 (DSG motif) (protein, UniProt P18177 1601-1716, looked up, fragment)
chain: NIKFILDANFIISGTTSIGQFEFICDENDNIQPYFIKFNTLETNYTLYVGNRQNMIVEPNYDLDDSGDISSTVINFSQKYLYGIDSCVNKVVISPNIYTDEINITPVYETNNTYPE
- Start of cell rounding after (TcdB): 12 to 15 h
- Neutralising effect of the polyclonal antiserum in the CHO test (TcdB): smaller neutralising effect
